Assay: Thermo Scientific Acclaim RSLC 120 C18, 100 × 2.1 mm, 2.2 µm, 30 °C, 0.2 to 0.48 mL/min, estimated dead time 1.1 min; A: 90% water + 10% methanol + 5 mM ammonium acetate; B: methanol + 5 mM ammonium acetate; gradient (min/%B) 0.1/1 3/39 14/99.9 16/99.9
Conditions: stereoisomer not certain

LC retention time	Structure (SMILES)
10.6 min	CCOC(=O)NCCOc1ccc(Oc2ccccc2)cc1
10.2 min	COC(=O)C(Cc1ccccc1)NC(=O)C(CC(=O)O)NCCC(C)(C)C (stereo not drawn)
6.79 min	CC(C(=O)O)c1cccc(Oc2ccccc2)c1 (stereo not drawn)
7.14 min	CN(C)S(=O)(=O)Nc1ccccc1
7.94 min	COC=C(C(=O)O)c1ccccc1Oc1cc(Oc2ccccc2C#N)ncn1
3.84 min	Nc1ncnc2c1ncn2C1OC(CO)C(O)C1O (stereo not drawn)
7.23 min	Cc1ccc(NS(=O)(=O)N(C)C)cc1
8.02 min	CCc1cccc(CC)c1N(COC)C(=O)CS(=O)(=O)O
4.81 min	CC[N+]1([O-])CCCC1CNC(=O)c1cc(S(=O)(=O)CC)c(N)cc1OC (stereo not drawn)
11.2 min	CCCc1nc2c(C)cc(-c3nc4ccccc4n3C)cc2n1Cc1ccc(-c2ccccc2C(=O)O)cc1
5.42 min	CC(C)(C)Nc1nc(N)[nH]c(=O)n1
6.56 min	Cc1ccc2n[nH]nc2c1
11.1 min	CC(CCC(=O)O)C1CCC2C3C(O)CC4CC(O)CCC4(C)C3CCC12C (stereo not drawn)
4.08 min	CC(C)C(N)C(=O)OCC(CO)OCn1cnc2c(=O)[nH]c(N)nc21 (stereo not drawn)
5.61 min	CCC1(O)C(=O)OCc2c1cc1n(c2=O)Cc2cc3c(CN(C)C)c(O)ccc3nc2-1 (stereo not drawn)
8.49 min	CC(C)(c1ccc(O)cc1)c1ccc(O)cc1
14.2 min	CCCCCCCCCCCCOS(=O)(=O)c1ccccc1
8.79 min	CCOC(=O)C1=CC(OC(CC)CC)C(NC(C)=O)C(N)C1 (stereo not drawn)
11.5 min	CCC(=C(c1ccccc1)c1ccc(OCCN(C)C)cc1)c1ccc(OC)c(O)c1
5.74 min	CCNC1CN(CCCOC)S(=O)(=O)c2sc(S(N)(=O)=O)cc21 (stereo not drawn)
9.74 min	CC12CCC3c4cc(O)c(O)cc4CCC3C1CCC2=O (stereo not drawn)
3.04 min	O=c1[nH]cnc2[nH]ncc12
2.88 min	O=C(O)c1ccccc1

LC retention time	Structure (SMILES)
13.3 min	CCCCc1oc2ccc(NS(C)(=O)=O)cc2c1C(=O)c1ccc(OCCCN(CCCC)CCCC)cc1
12.5 min	CC(C)c1nc(CN(C)C(=O)NC(C(=O)NC(Cc2ccccc2)CC(O)C(Cc2ccccc2)NC(=O)OCc2cncs2)C(C)C)cs1 (stereo not drawn)
4.42 min	C=C1CC23CC1(O)CCC2C12C=CC(O)C(C)(C(=O)O1)C2C3C(=O)O (stereo not drawn)
3.58 min	O=C(O)c1ccccc1O
2.5 min	C=CC(=O)NC(C)(C)CS(=O)(=O)O
8.27 min	CCC(C)C(=O)OC1CC(O)C=C2C=CC(C)C(CCC(O)CC(O)CC(=O)O)C21 (stereo not drawn)
4.41 min	CCCCCC(C)N (stereo not drawn)
10.6 min	CCc1ccc(CCOc2ccc(CC3SC(=O)NC3=O)cc2)nc1 (stereo not drawn)
10.9 min	Cc1ccc(C)c(OCCCC(C)(C)C(=O)O)c1
6.12 min	CNCC(c1ccc(OC)cc1)C1(O)CCCCC1 (stereo not drawn)
8.81 min	CC(C)c1ccc(NC(N)=O)cc1
6.79 min	O=C(O)CCC(=O)c1ccc(-c2ccccc2)cc1
10.1 min	CCCCC1=NC2(CCCC2)C(=O)N1Cc1ccc(-c2ccccc2-c2nn[nH]n2)cc1
4.3 min	CC1(C)OCC2OC3(C(=O)O)OC(C)(C)OC3C2O1 (stereo not drawn)
6.64 min	NC(=O)N1c2ccccc2C(O)C(O)c2ccccc21 (stereo not drawn)
5.09 min	COc1cc(NS(=O)(=O)c2ccc(NC(C)=O)cc2)nc(OC)n1
6.04 min	NS(=O)(=O)c1cc(C(=O)O)cc(N2CCCC2)c1Oc1ccccc1
9.24 min	CCCCOc1ccc(CC(=O)NO)cc1
6.52 min	c1ccc2[nH]c(-c3cscn3)nc2c1
5.99 min	CCNCC(=O)Nc1c(C)cccc1C
9.19 min	O=[N+]([O-])c1cc(C2CCCCC2)c(O)c([N+](=O)[O-])c1
6.97 min	COCC(C)N(C(=O)CS(=O)(=O)O)c1c(C)csc1C (stereo not drawn)
4.91 min	CC1(C)CC1C(=O)NC(=CCCCCSCC(N)C(=O)O)C(=O)O (stereo not drawn)

Structure (SMILES)	LC retention time
CCCCCc1cc(O)c2c(c1)OC(C)(C)C1CCC(C(=O)O)=CC21 (stereo not drawn)	12 min
CCc1cnc(C2=NC(C)(C(C)C)C(=O)N2)c(C(=O)O)c1 (stereo not drawn)	4.32 min
COC(=O)NC(=S)Nc1ccccc1NC(=S)NC(=O)OC	6.88 min
CCCC(C)C1(CC)C(=O)NC(=S)NC1=O (stereo not drawn)	8.63 min
CCCCc1c(C)nc(N(C)C)[nH]c1=O	7.97 min
COc1ccc(C(O)(c2cncnc2)C2CC2)cc1 (stereo not drawn)	7.12 min
C#CC1(O)CCC2C3CCC4=CC(=O)CCC4=C3C=CC21CC (stereo not drawn)	9.64 min
CC1CC(C)C(=O)C(C(O)CC2CC(=O)NC(=O)C2)C1 (stereo not drawn)	6.32 min
CNC(=O)Oc1cccc2ccccc12	7.42 min
O=[N+]([O-])c1ccc(O)c([N+](=O)[O-])c1	4.5 min
COc1cc(OC)nc(NC(=O)NS(=O)(=O)c2cc(NC=O)ccc2C(=O)N(C)C)n1	5.62 min
CCOP(=O)(NC(C)C)Oc1ccc(SC)c(C)c1 (stereo not drawn)	10.4 min
CC(C)CC(CN)CC(=O)O (stereo not drawn)	4.04 min
COC(=O)Nc1cccc(OC(=O)Nc2cccc(C)c2)c1	8.72 min
CNC(=N[N+](=O)[O-])NCC1CCOC1 (stereo not drawn)	3.59 min
CC1=C(C(=O)Nc2ccccc2)SCCO1	7.42 min
CCc1ccc(C(=O)NN(C(=O)c2cc(C)cc(C)c2)C(C)(C)C)cc1	10.4 min
CSc1nc(N=[N+]=[N-])nc(NC(C)C)n1	9.67 min
CCOP(=S)(NC(C)CC)Oc1cc(C)ccc1[N+](=O)[O-] (stereo not drawn)	11.2 min
CNC(=O)N(C)c1nnc(C(C)(C)C)s1	7.21 min
CCOP(=O)(NC(C)C)Oc1ccc(S(C)(=O)=O)c(C)c1 (stereo not drawn)	7.17 min
CSC1=NC(C)(c2ccccc2)C(=O)N1Nc1ccccc1 (stereo not drawn)	9.18 min
CS(=O)(=O)c1ccc(C(=O)C2C(=O)CCCC2=O)c([N+](=O)[O-])c1	2.13 min
Nc1ncn[nH]1	1.67 min
CCC1(CC)C(=O)NC(=O)NC1=O	4.8 min
CCNC(=O)NC(=O)C(C#N)=NOC	5.58 min
CCC(C)(CC)c1cc(NC(=O)c2c(OC)cccc2OC)on1	9.39 min
